Measured values taken from ChEMBL document CHEMBL5442219.

How the values were obtained:
Settings in all cases: Compound concentration 10 µM
[1] = biological target: D(3) dopamine receptor (Homo sapiens) (UniProt P35462)
[2] = biological target: Translocator protein (Homo sapiens) (UniProt P30536)
[3] = biological target: Histamine H4 receptor (Homo sapiens) (UniProt Q9H3N8)
[4] = biological target: 5-hydroxytryptamine receptor 1D (Homo sapiens) (UniProt P28221)
[5] = biological target: D(1B) dopamine receptor (Homo sapiens) (UniProt P21918)
Chain of D(1B) dopamine receptor (Homo sapiens) (P21918 whole entry): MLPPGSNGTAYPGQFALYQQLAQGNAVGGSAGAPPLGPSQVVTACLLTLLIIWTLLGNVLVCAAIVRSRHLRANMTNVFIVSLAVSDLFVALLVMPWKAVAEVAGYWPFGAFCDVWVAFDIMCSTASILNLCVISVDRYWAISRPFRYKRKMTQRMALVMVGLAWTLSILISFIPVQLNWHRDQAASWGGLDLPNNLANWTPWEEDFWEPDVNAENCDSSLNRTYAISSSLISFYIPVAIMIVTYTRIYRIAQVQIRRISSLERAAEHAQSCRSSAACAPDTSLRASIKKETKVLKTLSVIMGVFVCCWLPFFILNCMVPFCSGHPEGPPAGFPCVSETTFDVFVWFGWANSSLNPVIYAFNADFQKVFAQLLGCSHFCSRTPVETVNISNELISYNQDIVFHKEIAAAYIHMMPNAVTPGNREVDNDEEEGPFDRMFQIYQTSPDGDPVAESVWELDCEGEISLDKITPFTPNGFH

[6] = biological target: T1, Alpha-2C adrenergic receptor (Homo sapiens) (UniProt P18825)
T1 sequence (whole entry): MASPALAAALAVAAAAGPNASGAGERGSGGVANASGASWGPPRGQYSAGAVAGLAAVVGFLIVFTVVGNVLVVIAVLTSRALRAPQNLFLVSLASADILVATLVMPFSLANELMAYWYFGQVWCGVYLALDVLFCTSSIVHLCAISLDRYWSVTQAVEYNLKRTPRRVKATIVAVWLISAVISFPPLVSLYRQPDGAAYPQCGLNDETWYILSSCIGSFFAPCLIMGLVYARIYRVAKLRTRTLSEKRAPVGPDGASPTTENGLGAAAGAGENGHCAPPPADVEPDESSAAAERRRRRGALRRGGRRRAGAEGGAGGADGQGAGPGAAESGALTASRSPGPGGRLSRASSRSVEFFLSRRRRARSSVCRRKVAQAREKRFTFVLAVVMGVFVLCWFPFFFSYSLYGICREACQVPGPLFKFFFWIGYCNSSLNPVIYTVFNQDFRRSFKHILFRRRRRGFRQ

[7] = biological target: 5-hydroxytryptamine receptor 7 (Homo sapiens) (UniProt P34969)
[8] = biological target: Sigma intracellular receptor 2 (Homo sapiens) (UniProt Q5BJF2)
Chain of Sigma intracellular receptor 2 (Homo sapiens) (Q5BJF2 whole entry): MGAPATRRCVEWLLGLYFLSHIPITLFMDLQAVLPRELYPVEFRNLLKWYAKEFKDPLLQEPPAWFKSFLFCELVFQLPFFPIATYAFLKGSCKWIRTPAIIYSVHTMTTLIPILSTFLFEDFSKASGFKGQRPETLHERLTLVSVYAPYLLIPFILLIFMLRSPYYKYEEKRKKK

[9] = biological target: D(2) dopamine receptor (Homo sapiens) (UniProt P14416)
Chain of D(2) dopamine receptor (Homo sapiens) (P14416 whole entry): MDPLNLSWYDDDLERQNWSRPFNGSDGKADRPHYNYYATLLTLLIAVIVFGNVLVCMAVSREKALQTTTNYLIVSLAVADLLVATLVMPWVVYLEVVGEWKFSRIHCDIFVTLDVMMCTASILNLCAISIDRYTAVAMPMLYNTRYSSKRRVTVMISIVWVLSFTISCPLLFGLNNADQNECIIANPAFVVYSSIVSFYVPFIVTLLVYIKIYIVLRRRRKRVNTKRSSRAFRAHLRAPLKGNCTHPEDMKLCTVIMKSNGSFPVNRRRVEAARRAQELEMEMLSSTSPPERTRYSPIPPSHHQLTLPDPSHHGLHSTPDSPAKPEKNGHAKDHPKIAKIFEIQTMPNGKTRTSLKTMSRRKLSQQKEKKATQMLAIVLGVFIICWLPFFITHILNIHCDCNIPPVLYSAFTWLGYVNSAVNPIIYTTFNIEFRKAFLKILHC

[10] = biological target: D(1A) dopamine receptor (Homo sapiens) (UniProt P21728)
Chain of D(1A) dopamine receptor (Homo sapiens) (P21728 whole entry): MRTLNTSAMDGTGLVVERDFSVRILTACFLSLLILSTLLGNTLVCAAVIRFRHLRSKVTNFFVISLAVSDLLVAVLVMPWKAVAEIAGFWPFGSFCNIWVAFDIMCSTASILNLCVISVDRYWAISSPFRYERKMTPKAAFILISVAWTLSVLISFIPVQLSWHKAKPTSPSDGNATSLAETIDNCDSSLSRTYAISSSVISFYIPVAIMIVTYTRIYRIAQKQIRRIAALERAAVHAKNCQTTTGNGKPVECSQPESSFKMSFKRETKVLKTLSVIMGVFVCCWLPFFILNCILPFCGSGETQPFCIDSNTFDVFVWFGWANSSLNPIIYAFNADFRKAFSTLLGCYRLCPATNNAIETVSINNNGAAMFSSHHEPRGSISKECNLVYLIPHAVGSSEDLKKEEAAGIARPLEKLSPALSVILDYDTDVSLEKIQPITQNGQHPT

[11] = biological target: Delta-type opioid receptor (Homo sapiens) (UniProt P41143)
Chain of Delta-type opioid receptor (Homo sapiens) (P41143 whole entry): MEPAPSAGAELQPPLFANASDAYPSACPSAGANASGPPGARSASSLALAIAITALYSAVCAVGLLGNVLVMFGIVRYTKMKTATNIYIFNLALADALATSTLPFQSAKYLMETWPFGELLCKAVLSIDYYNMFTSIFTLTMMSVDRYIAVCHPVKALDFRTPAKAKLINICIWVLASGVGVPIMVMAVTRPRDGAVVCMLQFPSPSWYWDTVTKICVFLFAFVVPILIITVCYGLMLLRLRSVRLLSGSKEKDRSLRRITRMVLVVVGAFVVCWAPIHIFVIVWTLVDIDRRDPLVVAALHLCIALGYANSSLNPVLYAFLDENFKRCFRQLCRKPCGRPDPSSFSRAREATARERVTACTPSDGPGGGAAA

[12] = biological target: 5-hydroxytryptamine receptor 1E (Homo sapiens) (UniProt P28566)
Chain of 5-hydroxytryptamine receptor 1E (Homo sapiens) (P28566 whole entry): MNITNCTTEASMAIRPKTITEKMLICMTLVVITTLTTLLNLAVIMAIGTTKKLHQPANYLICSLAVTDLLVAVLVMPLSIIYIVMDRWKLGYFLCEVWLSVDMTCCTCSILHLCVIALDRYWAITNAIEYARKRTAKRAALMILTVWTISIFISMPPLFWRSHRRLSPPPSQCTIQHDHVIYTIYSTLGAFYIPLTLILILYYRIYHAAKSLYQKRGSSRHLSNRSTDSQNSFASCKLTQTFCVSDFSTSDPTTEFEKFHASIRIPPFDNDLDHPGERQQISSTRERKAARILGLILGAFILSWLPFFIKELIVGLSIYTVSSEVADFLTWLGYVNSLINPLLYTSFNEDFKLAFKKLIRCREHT

[13] = biological target: T2, Alpha-2A adrenergic receptor (Homo sapiens) (UniProt P08913)
T2 sequence (whole entry): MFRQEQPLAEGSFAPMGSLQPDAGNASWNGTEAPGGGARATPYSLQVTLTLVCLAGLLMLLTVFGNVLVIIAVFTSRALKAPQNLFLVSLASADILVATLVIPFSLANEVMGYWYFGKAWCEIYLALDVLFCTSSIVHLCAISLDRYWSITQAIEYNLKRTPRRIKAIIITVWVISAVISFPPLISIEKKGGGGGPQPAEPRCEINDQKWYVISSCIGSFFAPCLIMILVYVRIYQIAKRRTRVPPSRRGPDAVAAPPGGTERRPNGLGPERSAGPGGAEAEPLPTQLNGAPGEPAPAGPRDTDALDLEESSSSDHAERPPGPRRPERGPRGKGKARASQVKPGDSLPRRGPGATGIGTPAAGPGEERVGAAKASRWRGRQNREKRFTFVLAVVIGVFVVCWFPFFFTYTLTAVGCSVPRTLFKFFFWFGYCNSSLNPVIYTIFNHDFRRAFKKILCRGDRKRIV

[14] = biological target: 5-hydroxytryptamine receptor 6 (Homo sapiens) (UniProt P50406)
Chain of 5-hydroxytryptamine receptor 6 (Homo sapiens) (P50406 whole entry): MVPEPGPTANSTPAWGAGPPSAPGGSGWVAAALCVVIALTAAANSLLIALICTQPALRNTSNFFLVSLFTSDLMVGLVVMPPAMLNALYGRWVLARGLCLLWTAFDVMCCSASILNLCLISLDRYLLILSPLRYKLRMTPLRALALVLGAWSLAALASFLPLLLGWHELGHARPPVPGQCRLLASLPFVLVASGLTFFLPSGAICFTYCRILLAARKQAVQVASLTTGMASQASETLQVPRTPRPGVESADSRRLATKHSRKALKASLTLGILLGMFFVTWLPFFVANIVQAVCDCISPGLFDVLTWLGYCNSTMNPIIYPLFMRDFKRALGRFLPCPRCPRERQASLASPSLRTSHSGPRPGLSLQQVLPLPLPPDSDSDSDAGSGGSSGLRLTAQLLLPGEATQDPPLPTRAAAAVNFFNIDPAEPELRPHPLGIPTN

[15] = biological target: Beta-2 adrenergic receptor (Homo sapiens) (UniProt P07550)
[16] = biological target: Sodium-dependent noradrenaline transporter (Homo sapiens) (UniProt P23975)
Chain of Sodium-dependent noradrenaline transporter (Homo sapiens) (P23975 whole entry): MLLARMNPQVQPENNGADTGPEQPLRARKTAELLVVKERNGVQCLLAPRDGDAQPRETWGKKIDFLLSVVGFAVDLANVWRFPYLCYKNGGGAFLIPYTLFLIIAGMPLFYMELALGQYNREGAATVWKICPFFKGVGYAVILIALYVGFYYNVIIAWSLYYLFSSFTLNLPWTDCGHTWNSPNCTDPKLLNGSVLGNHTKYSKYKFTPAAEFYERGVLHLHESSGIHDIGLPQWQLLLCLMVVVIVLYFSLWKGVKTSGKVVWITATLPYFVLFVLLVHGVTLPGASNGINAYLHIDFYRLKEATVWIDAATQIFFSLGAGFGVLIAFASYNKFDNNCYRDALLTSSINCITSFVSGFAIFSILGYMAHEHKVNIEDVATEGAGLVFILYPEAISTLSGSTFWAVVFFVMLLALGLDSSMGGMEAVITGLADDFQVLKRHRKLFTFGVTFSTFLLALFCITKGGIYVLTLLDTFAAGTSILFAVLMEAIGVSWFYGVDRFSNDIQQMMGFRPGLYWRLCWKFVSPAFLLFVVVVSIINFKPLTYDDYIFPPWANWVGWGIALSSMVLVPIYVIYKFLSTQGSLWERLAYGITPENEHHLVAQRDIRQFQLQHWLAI

[17] = biological target: T3, Muscarinic acetylcholine receptor M5 (Homo sapiens) (UniProt P08912)
T3 sequence (whole entry): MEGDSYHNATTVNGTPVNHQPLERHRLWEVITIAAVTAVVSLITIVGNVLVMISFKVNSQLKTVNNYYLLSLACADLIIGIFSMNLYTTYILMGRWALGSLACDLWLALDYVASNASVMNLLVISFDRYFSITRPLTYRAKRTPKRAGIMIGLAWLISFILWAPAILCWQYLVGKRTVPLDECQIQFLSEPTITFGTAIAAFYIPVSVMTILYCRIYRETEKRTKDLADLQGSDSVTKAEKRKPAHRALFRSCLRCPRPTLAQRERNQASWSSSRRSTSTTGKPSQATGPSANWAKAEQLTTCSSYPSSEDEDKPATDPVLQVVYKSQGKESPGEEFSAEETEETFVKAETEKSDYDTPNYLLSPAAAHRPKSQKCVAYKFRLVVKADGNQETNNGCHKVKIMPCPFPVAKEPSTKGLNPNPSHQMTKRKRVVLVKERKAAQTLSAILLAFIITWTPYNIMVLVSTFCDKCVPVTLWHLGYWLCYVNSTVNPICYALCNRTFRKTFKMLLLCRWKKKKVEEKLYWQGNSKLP

[18] = biological target: T4, 5-hydroxytryptamine receptor 1A (Homo sapiens) (UniProt P08908)
T4 sequence (whole entry): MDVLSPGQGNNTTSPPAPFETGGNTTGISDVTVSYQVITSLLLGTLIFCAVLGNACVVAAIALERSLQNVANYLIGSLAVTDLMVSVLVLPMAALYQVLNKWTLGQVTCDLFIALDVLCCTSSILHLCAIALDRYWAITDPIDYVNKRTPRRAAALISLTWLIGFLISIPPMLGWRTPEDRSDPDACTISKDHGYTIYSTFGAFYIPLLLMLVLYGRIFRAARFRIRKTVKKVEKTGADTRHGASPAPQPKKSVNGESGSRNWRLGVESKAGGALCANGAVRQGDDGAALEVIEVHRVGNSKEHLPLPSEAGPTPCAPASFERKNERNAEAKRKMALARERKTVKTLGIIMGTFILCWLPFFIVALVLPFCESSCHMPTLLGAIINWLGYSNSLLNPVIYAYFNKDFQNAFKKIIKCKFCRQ

[19] = biological target: 5-hydroxytryptamine receptor 1B (Homo sapiens) (UniProt P28222)
[20] = biological target: Sodium-dependent serotonin transporter (Homo sapiens) (UniProt P31645)
[21] = biological target: 5-hydroxytryptamine receptor 2A (Homo sapiens) (UniProt P28223)

Chain of Histamine H4 receptor (Homo sapiens) (Q9H3N8 whole entry): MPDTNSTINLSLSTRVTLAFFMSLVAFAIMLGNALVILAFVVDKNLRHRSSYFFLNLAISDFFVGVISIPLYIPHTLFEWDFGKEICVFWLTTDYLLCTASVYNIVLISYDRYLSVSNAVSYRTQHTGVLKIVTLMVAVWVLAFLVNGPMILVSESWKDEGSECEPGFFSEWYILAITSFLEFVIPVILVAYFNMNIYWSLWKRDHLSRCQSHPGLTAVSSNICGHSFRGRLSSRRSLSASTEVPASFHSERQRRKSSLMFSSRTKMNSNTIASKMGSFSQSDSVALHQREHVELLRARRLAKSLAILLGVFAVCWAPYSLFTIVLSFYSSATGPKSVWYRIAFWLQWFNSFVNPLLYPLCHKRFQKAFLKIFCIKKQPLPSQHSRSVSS
Chain of 5-hydroxytryptamine receptor 1D (Homo sapiens) (P28221 whole entry): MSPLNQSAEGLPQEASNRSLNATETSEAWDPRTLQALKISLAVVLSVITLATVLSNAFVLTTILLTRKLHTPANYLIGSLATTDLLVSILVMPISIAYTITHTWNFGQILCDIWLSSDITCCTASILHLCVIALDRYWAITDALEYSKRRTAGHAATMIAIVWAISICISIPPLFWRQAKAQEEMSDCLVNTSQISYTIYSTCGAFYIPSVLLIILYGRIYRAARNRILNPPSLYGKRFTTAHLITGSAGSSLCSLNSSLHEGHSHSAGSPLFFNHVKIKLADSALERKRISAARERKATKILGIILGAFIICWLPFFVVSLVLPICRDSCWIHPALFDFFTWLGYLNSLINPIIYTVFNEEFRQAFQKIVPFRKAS
Chain of D(3) dopamine receptor (Homo sapiens) (P35462 whole entry): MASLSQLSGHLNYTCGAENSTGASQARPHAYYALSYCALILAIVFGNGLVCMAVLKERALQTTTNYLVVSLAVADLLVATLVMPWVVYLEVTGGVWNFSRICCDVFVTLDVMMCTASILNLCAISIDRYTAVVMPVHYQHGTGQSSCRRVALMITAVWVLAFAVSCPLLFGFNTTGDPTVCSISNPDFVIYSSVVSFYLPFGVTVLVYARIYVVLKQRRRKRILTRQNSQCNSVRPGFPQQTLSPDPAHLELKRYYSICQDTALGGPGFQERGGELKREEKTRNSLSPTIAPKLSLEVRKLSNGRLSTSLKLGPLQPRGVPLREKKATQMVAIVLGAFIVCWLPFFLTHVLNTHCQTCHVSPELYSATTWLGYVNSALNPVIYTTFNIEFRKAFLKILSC
Chain of Translocator protein (Homo sapiens) (P30536 whole entry): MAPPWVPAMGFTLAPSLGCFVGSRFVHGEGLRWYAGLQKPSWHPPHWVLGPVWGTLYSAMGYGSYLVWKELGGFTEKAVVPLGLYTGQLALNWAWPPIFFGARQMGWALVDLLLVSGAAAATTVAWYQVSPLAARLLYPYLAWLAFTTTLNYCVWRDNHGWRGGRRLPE

Row | Compound | inhibition [1] [%] | inhibition [2] [%] | inhibition [3] [%] | inhibition [4] [%] | inhibition [5] [%] | inhibition [6] [%] | inhibition [7] [%] | inhibition [8] [%] | inhibition [9] [%] | inhibition [10] [%] | inhibition [11] [%] | inhibition [12] [%] | inhibition [13] [%] | inhibition [14] [%] | inhibition [15] [%] | inhibition [16] [%] | inhibition [17] [%] | inhibition [18] [%] | inhibition [19] [%] | inhibition [20] [%] | other results
1 | O=c1ccc2ccc(OCCCCN3CCN(c4cccc5sccc45)CC3)cc2[nH]1 | 100 | -2.98 | 8 | 104 | 88.1 | 104 | 101 | 95.6 | 104 | 82.6 | -1.82 | 92.3 | 104 | 101 | 78.8 | 96.6 | 38.2 | 103 | 99 | 98.2 | inhibition [21]: 97.1%
2 | CCc1nn(CCCN2CCN(c3cccc(Cl)c3)CC2)c(=O)n1CCOc1ccccc1 | 86.1 | 64.2 | 5.27 | 100 | 6.13 | 95.3 | 97 | 91.7 | 69.7 | 77.7 | 13 | -4.17 | 91.1 | 74.7 | -0.82 | 85.1 | 30.8 | 42.6 | 88 | 84.9 | inhibition [21]: 82%
